Results taken from paper PMC2760454 (Biochemistry, 2008).
Read-outs that look alike come from different tables or passages of the source. Values belong to the compound of their own block, whether it stands above or below them.

Experiments:
[1] = target: T1, homoisocitrate dehydrogenase (HIcDH) (Saccharomyces cerevisiae, UniProt P40495); assay: HIcDH initial velocity studies; type: biochemical; conditions: for Kact (activation constant): varied salt, MgHIc 4.2 µM, NAD 0.5 mM, fit to eq. 1
[2] = target: T1, homoisocitrate dehydrogenase (HIcDH); assay: pH dependence of HIcDH kinetic parameters and of the activation constant of K+; type: biochemical
[3] = target: T1, homoisocitrate dehydrogenase (HIcDH); conditions: in the presence of K+; cited from earlier work
[4] = target: T1, homoisocitrate dehydrogenase (HIcDH); assay: Product and dead-end inhibition studies of HIcDH in the absence of K+; type: biochemical; conditions: NAD fixed at its Km

T1 sequence (P40495 23-371): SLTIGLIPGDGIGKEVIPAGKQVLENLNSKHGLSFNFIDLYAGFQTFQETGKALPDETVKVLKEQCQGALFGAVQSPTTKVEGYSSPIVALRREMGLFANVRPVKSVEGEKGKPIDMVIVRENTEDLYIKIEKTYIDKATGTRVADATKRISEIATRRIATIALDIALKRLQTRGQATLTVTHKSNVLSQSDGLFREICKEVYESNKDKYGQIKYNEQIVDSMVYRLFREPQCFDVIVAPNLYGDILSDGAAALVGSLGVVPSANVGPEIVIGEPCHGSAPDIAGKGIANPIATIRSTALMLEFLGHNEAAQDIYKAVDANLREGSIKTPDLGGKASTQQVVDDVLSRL

SMILES: C[N+](C)(C)C.[Cl-] [tetramethylammonium chloride, reference compound]
initial rate as % of that without KCl ([1]; 200 mM, fixed concentrations of MgHIc and NAD): about 36%

SMILES: NC(=O)C1=CN([C@@H]2O[C@H](COP(=O)(O)OP(=O)(O)OC[C@H]3O[C@@H](n4cnc5c(N)ncnc54)[C@H](O)[C@@H]3O)[C@@H](O)[C@H]2O)C=CC1 [NADH, reduced nicotinamide adenine dinucleotide]
Ki [3]: 0.3 mM

SMILES: NC(=O)c1ccc[n+]([C@@H]2O[C@H](COP(=O)([O-])OP(=O)(O)OC[C@H]3O[C@@H](n4cnc5c(N)ncnc54)[C@H](O)[C@@H]3O)[C@@H](O)[C@H]2O)c1 [NAD, nicotinamide adenine dinucleotide]
V/KNADEt, constant value at high pH ([2]; absence of K+, pH 8.5 to 9.7): about 123 ± 3 M^−1s^−1 | Kd [1]: 77 ± 57 mM | KNAD ([1]; KCl 0 mM): 9 ± 3 mM | KNAD ([1]; KCl 5 mM): 1.6 ± 0.2 mM | KNAD ([1]; KCl 15 mM): 1.3 ± 0.1 mM | KNAD ([1]; KCl 150 mM): 0.8 ± 0.1 mM | KNAD ([1]; KCl 350 mM): 0.9 ± 0.2 mM | KNAD ([1]; Minus KOAc, pH 8.0, 25°C): 9 ± 3 mM | V1/KNADEt ([1]; Minus KOAc, pH 8.0, 25°C): (5 ± 1) × 10^2 M^−1·s^−1 | KNAD ([1]; NAD varied at fixed KOAc, MgHIc saturating (10Km), fit to eq. 5): 0.3 ± 0.1 mM | KNAD ([1]; Plus KOAc, pH 8.0, 25°C): 0.3 ± 0.1 mM | V1/KNADEt ([1]; Plus KOAc, pH 8.0, 25°C): (4 ± 1) × 10^4 M^−1·s^−1

The next lines start with the values.

Ki fold higher than with KCl ([1]; KOAc versus KCl): 5 fold | Kact (activation constant) [1]: 26 ± 4 mM
SMILES: CC(=O)[O-].[K+] [KOAc, Potassium acetate]

appKact, pH independent value ([2]; KOAc varied, NAD 0.4 mM, MgHIc 10Km, average of data above pH 7): about 13 mM | Kd ([1]; read-out: KiK, NAD varied at fixed KOAc, MgHIc saturating (10Km), fit to eq. 5): 43 ± 19 mM
SMILES: [K+] [K^+, Potassium]

fold increase in initial rate ([1]; 200 mM KCl versus absence, reactants fixed at their Km values): 13 fold | Kact (activation constant) [1]: 55 ± 20 mM
SMILES: [Cl-].[K+] [KCl]

inhibition constant, competitive versus MgHIc [4]: 65 ± 7 ∝M
SMILES: O=C(O)CCC=C(C(=O)O)C(O)C(=O)O (stereo not drawn) [CPM, 3-Carboxypropylidenemalate]
